Reference: patent US11787850B2, “Peptidic TGF-beta antagonists” (priority 2015, dated 2023)

Experiments:
[1] = tested on: human keratinocyte HaCat cell migration; assay: Wound closure assay, HaCat keratinocytes; assay type: cell-based; settings: 10 nM peptide, 100 pM TGF-β, 24 hours (FIG. 28)
Experimental: FIGS. 28A and 28B show the results of wound closure assays performed using human keratinocyte HaCat cells. […] (FIG. 28A) Human Keratinocyte HaCat cells were starved for 24 hours, scratched with pipette tips, and then treated with 100 pM TGF-β and 10 nM CD109-based peptides as indicated for 24 hours. Microscopy images were taken at time 0 and 24 hours of treatment. (FIG. 28B) Migration distances were measured using the Image J software platform. Error bars represent mean+/−standard deviation, asterisk designates a P value of <0.05.

[2] = tested on: TGF-β-induced migration of squamous cell carcinoma (A431) cells; assay: Scratch (wound closure) migration assay, A431 cells; assay type: cell-based; settings: 100 pM TGF-β1, 24 hours, P16 concentrations as indicated (FIG. 27)
Experimental: FIG. 10A and FIG. 10B illustrate that peptides B, E and X-1 inhibit TGF-β-induced cellular migration of A431 cells in vitro. Results are shown prior to treatment (0 hr, top panels) and after treatment (24 hr, bottom panels) for each of the peptides used. (See FIG. 2 and Table 1 for the amino acid sequence identity of the peptides).
A431 cells were grown to 80-90% confluence and serum-starved overnight. The next day, cells were scratched with a plastic pipette tip (time 0 hour) and then left untreated or treated for 24 hours with 100 pM TGF-β1 alone or in the presence of P16 as indicated. (FIG. 27A) Digital images were captured at 0 h and 24 h using an EVOS XL Core microscope. (FIG. 27B) Micrographs were subsequently quantitated to determine the percentage of the wound area that had closed following 24 hours in the presence or absence of P16, as indicated.
Cells were scratched with a pipette tip and treated without or with 100 pM TGF-b1 alone or in the presence of 10 nM Peptide A or Peptide A1 (C31S mutant). Pictures were taken at 0 and 24 hrs. Peptide A but not Peptide A1 inhibits TGF-b-induced migration in A431 cells. Peptide A contains monomeric and dimeric forms whereas Peptide A1 contains a C31S mutation to prevent intermolecular disulfide bond formation so that it forms monomers only.
Squamous cell carcinoma (A431) or breast cancer (MDA-MB-231) cells were grown to 80-90% confluence and serum-starved overnight. The next day, cells were scratched with a plastic pipette tip (time 0 hour) and then left untreated or treated for 24 hours with 100 pM TGF-β1 alone or in the presence of 10 nM peptide B (100 aa), E (67 aa), or X1 (P28, 28 aa). Digital images were captured at 0 h and 24 h (20× magnification) using an EVOS XL Core microscope.

[3] = tested on: bleomycin-induced skin fibrosis; assay: Bleomycin-induced skin fibrosis (scleroderma) mouse model; assay type: in vivo
Experimental: Wild type mice were treated with bleomycin ([…]) to induce skin fibrosis or PBS (negative control). Mice were treated with CD109 ([…]), P16 ([…]), or PBS by 100 μL subcutaneous injection every other day for 28 days for a total of 14 injections.
(§1) Mice were injected intradermally with bleomycin (5 mg) in […] PBS or PBS alone every second day for 28 days. Mice were co-injected without or with 1.0 mg recombinant CD109 protein or P16 peptide every second day for 28 days (14 mg total). Skin tissue was harvested and immunohistochemical analysis was performed for the detection of Fibronectin, α-sma, CTGF and Type-1 Collagen. Representative images of sections of skin derived from CD109 and p16 treated mice on day 28 after initial bleomycin or PBS treatment are shown. A total of 4-6 different mice per treatment group were analyzed. Original magnification x 20.
as §1, with “phospho-Smad2, phospho-Smad1” for “Fibronectin, α-sma, CTGF”, “TGF-β levels.” for “Type-1 Collagen.”

[4] = tested on: TGF-β-induced fibrotic response in human fibroblasts; assay: Immunoblot of fibrotic markers in human primary fibroblasts; assay type: cell-based; settings: 100 pM TGF-β, different dosage of P16, 24 hrs (FIG. 34)
Experimental: Human primary fibroblasts were starved for 36 hours, then treated with 20 pM TGF-β and 10 nM CD109-based peptide as indicated for 24 hours. (FIG. 29A) Cell lysates were separated by gel electrophoresis, transferred to a membrane, and immunoblotted with antibodies against fibronectin, PAI-1, CTGF, and α-tubulin. (FIG. 29B) The data shown represent the mean expression levels of 3 different biological replicates calculated by densitometry of fibronectin, PAI-1, and CTGF intensity levels normalized to α-tubulin. Error bars represent the standard deviation of the replicate experiments. A single asterisk designates a t test P value of less than 0.05, and a double asterisk indicates a P value of less than 0.01.
Human fibroblasts were starved for 36 hours, then treated with 100 pM TGF-β and different dosage of P16 for 24 hrs. (FIG. 34A) Cell lysates were separated by gel electrophoresis, transferred to a membrane, and immunoblotted with antibodies against each of the indicated proteins. (FIG. 34B) Densitometry analysis was subsequently carried out to quantitate the expression of each of the indicated proteins as a function of P16 concentration.

[5] = tested on: TGF-b-induced phosphorylation of Smad2 in squamous cell carcinoma (A431) cells; assay: Western blot for phospho-Smad2 in A431 cells; assay type: cell-based; settings: 10 nM peptide, 100 pM TGF-b, 45 min at 4 C (FIG. 32)
Experimental: A431 cancer cells treated with 10 nM of P16.2 (negative peptide control), P16 or PA in the absence or presence of 100 pM TGF-b, followed by 45 min of incubation at 4 C. Cells lysates were analyzed by Western blot using an anti-phosphoSmad2 antibody. Actin expression was used as loading control.

[6] = co-injected with bleomycin every second day for 28 days (FIG. 37)

ETWIWLDTNMGSRIYQ [Peptide P16] was tested, and the “suppression of HaCat cell migration” value [1] was “suppress”, the “inhibition of A431 cell migration, dose-dependent” value [2] was “inhibit” and the “SMAD1 phosphorylation in skin (immunohistochemistry)” value [3, 6] was “enhancing”. The “SMAD2 phosphorylation in skin (immunohistochemistry)” value [3, 6] was “reduces”, the “TGF-β expression in skin (immunohistochemistry)” value [3, 6] was “reduces” and the “extracellular matrix production (Fibronectin, α-sma, CTGF, Type-1 Collagen, immunohistochemistry)” value ([3]; co-injected with bleomycin every second day for 28 days, skin on day 28 (FIG. 36)) was “reduces”. The “collagen content as assessed by trichrome staining” value ([3]; subcutaneous injection every other day for 28 days (FIG. 35A)) was “reducing”, the “dermal collagen content, ratio of trichrome stain to total skin area” value ([3]; subcutaneous injection every other day for 28 days (FIG. 35B)) was “reducing” and the dermal thickness ([3]; trichrome staining, subcutaneous injection every other day for 28 days (FIG. 35A)) was “reducing”. The “TGF-β-induced expression of fibronectin, collagen (COL1A1), PAI-1, α-SMA and CTGF” value [4] was “attenuate” and the “inhibition of TGF-b-induced phosphorylation of Smad2” value [5] was “inhibit”.
